Experimental findings from patent US20260258032A1, “TYROSINE KINASE 2 INHIBITORS AND USES THEREOF” (BIOGEN MA INC., priority 2022, published 2026) are described below.

One test deals with T1, JH2 domain of human Tyk2 (Homo sapiens, UniProt P29597).
T1 construct: 10×His-tagged TYK2 JH2 domain (amino acid 575-876)
Nature of the test: JH2 biochemical assay (TR-FRET probe displacement). The test is classed as binding. The essentials:
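10×His-tagged human TYK2 JH2 (aa 575-876, 2 nM) incubated 60 min with 2 nM fluorescent probe, 0.1 nM Tb anti-His antibody and compound (10-point 3-fold series from […] top). TR-FRET 520/495 nm ratio, falling with probe displacement, normalized and fitted to a 4-parameter logistic for IC50.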
On the technique in general: Time-resolved FRET reads energy transfer from a long-lived donor to a nearby acceptor.

Test [1] relates to Tyk2 kinase activity on STAT4. Nature of the test: pSTAT4 cell assay (MSD, NK92 cells). The note with it: compounds 1 hr. In kind it is cell-based. The essentials: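 Serum-starved NK92 cells, which natively express Tyk2 and STAT4, were pretreated for 1 h with a 10-point 4-fold dilution series from 10 μM. They were then stimulated with 30 ng/mL IL2 for 15 min. Phospho-STAT in lysates was quantified by MSD with anti-STAT4 antibodies, and IC50 was obtained from 4-parameter logistic fits.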

The mark [2] stands for this setting: TR-FRET probe displacement, JH2 domain of human Tyk2.

Where a name gives a salt, the structure may show the parent alone. A value given as a limit tells only on which side of the number the result lay.

T1 sequence (P29597 575-876): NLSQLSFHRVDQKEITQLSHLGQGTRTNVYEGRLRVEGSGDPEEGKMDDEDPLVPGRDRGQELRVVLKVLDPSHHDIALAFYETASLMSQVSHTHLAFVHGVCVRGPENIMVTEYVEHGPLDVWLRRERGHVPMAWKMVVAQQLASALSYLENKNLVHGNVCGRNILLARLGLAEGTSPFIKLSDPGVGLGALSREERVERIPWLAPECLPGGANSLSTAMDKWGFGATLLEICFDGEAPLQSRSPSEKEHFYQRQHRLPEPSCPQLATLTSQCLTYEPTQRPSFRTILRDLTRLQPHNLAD

As for `CC(=O)Nc1cc2c(cn1)C1(CC1)CN2c1cc(C)cc(N2CC(S(C)(=O)=O)C2)n1` [Example 203, N-(1′-(4-methyl-6-(3-(methylsulfonyl)azetidin-1-yl)pyridin-2-yl)-1′,2′-dihydrospiro[cyclopropane-1,3′-pyrrolo[3,2-c]pyridin]-6′-yl)acetamide], the IC50 (commonly the point on the concentration scale where inhibition reaches its midpoint) at JH2 domain of human Tyk2 (JH2 biochemical assay) is 100 to 1000 nM; in test [1] (stimulated 15 minutes), not below 1000 nM.

As to `CC(=O)Nc1cc2c(cn1)C1(CC1)CN2c1cc(C(C)(F)F)nc(Cl)n1` [Example 282, N-(1′-(2-chloro-6-(1,1-difluoroethyl)pyrimidin-4-yl)-1′,2′-dihydrospiro[cyclopropane-1,3′-pyrrolo[3,2-c]pyridin]-6′-yl)acetamide], the IC50 on JH2 domain of human Tyk2 (JH2 biochemical assay) is 100 to 1000 nM; in test [1] (stimulated 15 minutes), not below 1000 nM.

On to `CC(=O)Nc1cc2c(cn1)C1(CC1)CN2c1cc(NCCC(C)F)nc(C(C)(F)F)n1` (stereo not shown) [Example 170, N-(1′-(2-(1,1-difluoroethyl)-6-((3-fluorobutyl)amino)pyrimidin-4-yl)-1′,2′-dihydrospiro[cyclopropane-1,3′-pyrrolo[3,2-c]pyridin]-6′-yl)acetamide trifluoroacetate], for which the IC50 on JH2 domain of human Tyk2 (JH2 biochemical assay) was not above 10 nM; in test [1] (stimulated 15 minutes) it was 10 to 100 nM.

Regarding `CCCCc1nc(C)cc(N2CC3(CC3)c3cnc(NC(C)=O)cc32)n1` [Example 58, N-(1′-(2-butyl-6-methylpyrimidin-4-yl)-1′,2′-dihydrospiro[cyclopropane-1,3′-pyrrolo[3,2-c]pyridin]-6′-yl)acetamide], the IC50 on JH2 domain of human Tyk2 (JH2 biochemical assay) was 10 to 100 nM; in test [1] (stimulated 15 minutes) it was not below 1000 nM.

In the case of `CC(=O)Nc1cc2c(cn1)C1(CC1)CN2c1cc(C)cc(N2CC(F)C2)n1` [Example 195, N-(1′-(6-(3-fluoroazetidin-1-yl)-4-methylpyridin-2-yl)-1′,2′-dihydrospiro[cyclopropane-1,3′-pyrrolo[3,2-c]pyridin]-6′-yl)acetamide], the IC50 at JH2 domain of human Tyk2 (JH2 biochemical assay) is 10 to 100 nM; in test [1] (stimulated 15 minutes), not below 1000 nM.

Consider `CC(=O)Nc1cc2c(cn1)C1(CC1)CN2c1cc([C@H]2C[C@@H](C#N)C2)nc(C(C)(F)F)n1` [Example 74, N-(1′-(6-((1s,3s)-3-cyanocyclobutyl)-2-(1,1-difluoroethyl)pyrimidin-4-yl)-1′,2′-dihydrospiro[cyclopropane-1,3′-pyrrolo[3,2-c]pyridin]-6′-yl)acetamide or N-(1′-(6-((1r,3r)-3-cyanocyclobutyl)-2-(1,1-difluoroethyl)pyrimidin-4-yl)-1′,2′-dihydrospiro[cyclopropane-1,3′-pyrrolo[3,2-c]pyridin]-6′-yl)acetamide], for which the values for the IC50 (on JH2 domain of human Tyk2 (JH2 biochemical assay); in test [1] (stimulated 15 minutes)) were not above 10 nM and 10 to 100 nM, respectively.

For `CCOC(=O)C(F)(F)c1nc(C)cc(N2CC3(CC3)c3cnc(NC(C)=O)cc32)n1` [Example 281, Ethyl 2-(4-(6′-acetamidospiro[cyclopropane-1,3′-pyrrolo[3,2-c]pyridin]-1′(2′H)-yl)-6-methylpyrimidin-2-yl)-2,2-difluoroacetate], the IC50 was 100 to 1000 nM on JH2 domain of human Tyk2 (JH2 biochemical assay) and not below 1000 nM in test [1] (stimulated 15 minutes).

`COc1ccc(-c2nc(C)cc(N3CC4(CC4)c4cnc(NC(C)=O)cc43)n2)cn1` [Example 254, N-(1′-(2-(6-methoxypyridin-3-yl)-6-methylpyrimidin-4-yl)-1′,2′-dihydrospiro[cyclopropane-1,3′-pyrrolo[3,2-c]pyridin]-6′-yl)acetamide trifluoroacetate]: the IC50 on JH2 domain of human Tyk2 (JH2 biochemical assay) is 100 to 1000 nM; in test [1] (stimulated 15 minutes) it was not below 1000 nM.

As for `CC(=O)Nc1cc2c(cn1)C1(CC1)CN2c1cc(-c2cn(C)nc2C)nc(C(C)(F)F)n1` [Example 239, N-(1′-(2-(1,1-difluoroethyl)-6-(1,3-dimethyl-1H-pyrazol-4-yl)pyrimidin-4-yl)-1′,2′-dihydrospiro[cyclopropane-1,3′-pyrrolo[3,2-c]pyridin]-6′-yl)acetamide trifluoroacetate], the results for the concentration for half-maximal inhibition (IC50) (at JH2 domain of human Tyk2 (JH2 biochemical assay); in test [1] (stimulated 15 minutes)) were not above 10 nM and 10 to 100 nM, respectively.

Take `CC(=O)Nc1cc2c(cn1)C1(CC1)CN2c1cc(C)cc(OCC2CC2)n1` [Example 352, N-(1′-(6-(cyclopropylmethoxy)-4-methylpyridin-2-yl)-1′,2′-dihydrospiro[cyclopropane-1,3′-pyrrolo[3,2-c]pyridin]-6′-yl)acetamide trifluoroacetate]: the results for the IC50 (at JH2 domain of human Tyk2 (JH2 biochemical assay); in test [1] (stimulated 15 minutes)) were 100 to 1000 nM and not below 1000 nM, respectively.

In the case of `CC(=O)Nc1cc2c(cn1)C1(CC1)CN2c1cc(NC[C@@H]2CCO2)nc(C(C)(F)F)n1` [Example 163, (S)-N-(1′-(2-(1,1-difluoroethyl)-6-((oxetan-2-ylmethyl)amino)pyrimidin-4-yl)-1′,2′-dihydrospiro[cyclopropane-1,3′-pyrrolo[3,2-c]pyridin]-6′-yl)acetamide], the IC50 was not above 10 nM on JH2 domain of human Tyk2 (JH2 biochemical assay) and 10 to 100 nM in test [1] (stimulated 15 minutes).

`CC(=O)Nc1cc2c(cn1)C1(CC1)CN2c1cc(C)cc(N2CCN(CCO)CC2)n1` [Example 406, N-(1′-(6-(4-(2-hydroxyethyl)piperazin-1-yl)-4-methylpyridin-2-yl)-1′,2′-dihydrospiro[cyclopropane-1,3′-pyrrolo[3,2-c]pyridin]-6′-yl)acetamide]: the IC50 on JH2 domain of human Tyk2 (setting [2]) is 100 to 1000 nM; in test [1] (then stimulated 15 minutes), not below 1000 nM.

Turning to `CC(=O)Nc1cc2c(cn1)C1(CC1)CN2c1cc(C)nc(-c2cnn(C)c2)n1` [Example 245, N-(1′-(6-methyl-2-(1-methyl-1H-pyrazol-4-yl)pyrimidin-4-yl)-1′,2′-dihydrospiro[cyclopropane-1,3′-pyrrolo[3,2-c]pyridin]-6′-yl)acetamide trifluoroacetate], the IC50 lay in the range of 10 to 100 nM at JH2 domain of human Tyk2 (JH2 biochemical assay) and 100 to 1000 nM in test [1] (stimulated 15 minutes).

In the case of `CC(=O)Nc1cc2c(cn1)C1(CC1)CN2c1cc(C)cc(C(F)(F)CO)n1` [Example 290, N-(1′-(6-(1,1-difluoro-2-hydroxyethyl)-4-methylpyridin-2-yl)-1′,2′-dihydrospiro[cyclopropane-1,3′-pyrrolo[3,2-c]pyridin]-6′-yl)acetamide], the IC50 was not above 10 nM on JH2 domain of human Tyk2 (JH2 biochemical assay) and 10 to 100 nM in test [1] (stimulated 15 minutes).

For the compound `CC(=O)Nc1cc2c(cn1)C1(CC1)CN2c1cc(C2CCOC2)nc(C(C)(F)F)n1` (stereo not shown) [Example 297, N-(1′-(2-(1,1-difluoroethyl)-6-(tetrahydrofuran-3-yl)pyrimidin-4-yl)-1′,2′-dihydrospiro[cyclopropane-1,3′-pyrrolo[3,2-c]pyridin]-6′-yl)acetamide trifluoroacetate], the IC50 on JH2 domain of human Tyk2 (JH2 biochemical assay) was not above 10 nM; in test [1] (stimulated 15 minutes), 100 to 1000 nM.

Take `CC(=O)Nc1cc2c(cn1)C1(CC1)CN2c1cc(-c2cn[nH]c2)nc(C(C)(F)F)n1` [Example 395, N-(1′-(2-(1,1-difluoroethyl)-6-(1H-pyrazol-4-yl)pyrimidin-4-yl)-1′,2′-dihydrospiro[cyclopropane-1,3′-pyrrolo[3,2-c]pyridin]-6′-yl)acetamide trifluoroacetate]: the IC50 at JH2 domain of human Tyk2 (setting [2]) was not above 10 nM; in test [1] (then stimulated 15 minutes) it was 10 to 100 nM.

Consider `CC(=O)Nc1cc2c(cn1)C1(CC1)CN2c1cc(Oc2cncnc2)nc(C(C)(F)F)n1` [Example 142, N-(1′-(2-(1,1-difluoroethyl)-6-(pyrimidin-5-yloxy)pyrimidin-4-yl)-1′,2′-dihydrospiro[cyclopropane-1,3′-pyrrolo[3,2-c]pyridin]-6′-yl)acetamide trifluoroacetate], for which the IC50 on JH2 domain of human Tyk2 (JH2 biochemical assay) is 10 to 100 nM; in test [1] (stimulated 15 minutes) it was not below 1000 nM.

With `COC(C)(C)c1nc(C)cc(N2CC3(CC3)c3cnc(NC(C)=O)cc32)n1` [Example 129, N-(1′-(2-(2-methoxypropan-2-yl)-6-methylpyrimidin-4-yl)-1′,2′-dihydrospiro[cyclopropane-1,3′-pyrrolo[3,2-c]pyridin]-6′-yl)acetamide], the IC50 on JH2 domain of human Tyk2 (JH2 biochemical assay) fell in the range of 10 to 100 nM; in test [1] (stimulated 15 minutes), 100 to 1000 nM.

With `CC(=O)Nc1cc2c(cn1)C1(CC1)CN2c1cc(NCC(C)N(C)C)nc(C(C)(F)F)n1` (stereo not shown) [Example 180, N-(1′-(2-(1,1-difluoroethyl)-6-((2-(dimethylamino)propyl)amino)pyrimidin-4-yl)-1′,2′-dihydrospiro[cyclopropane-1,3′-pyrrolo[3,2-c]pyridin]-6′-yl)acetamide trifluoroacetate], the IC50 at JH2 domain of human Tyk2 (JH2 biochemical assay) is 10 to 100 nM; in test [1] (stimulated 15 minutes), 100 to 1000 nM.

Consider `CC(=O)Nc1cc2c(cn1)C1(CC1)CN2c1nc(C(C)(F)F)ncc1F` [Example 128, N-(1′-(2-(1,1-difluoroethyl)-5-fluoropyrimidin-4-yl)-1′,2′-dihydrospiro[cyclopropane-1,3′-pyrrolo[3,2-c]pyridin]-6′-yl)acetamide], for which the IC50 was 10 to 100 nM on JH2 domain of human Tyk2 (JH2 biochemical assay) and not below 1000 nM in test [1] (stimulated 15 minutes).

Regarding `COC1CC(Oc2cc(C)cc(N3CC4(CC4)c4cnc(NC(C)=O)cc43)n2)C1` (stereo not shown) [Example 343, N-(1′-(6-(3-methoxycyclobutoxy)-4-methylpyridin-2-yl)-1′,2′-dihydrospiro[cyclopropane-1,3′-pyrrolo[3,2-c]pyridin]-6′-yl)acetamide trifluoroacetate], the IC50 at JH2 domain of human Tyk2 (JH2 biochemical assay) is 100 to 1000 nM; in test [1] (stimulated 15 minutes), not below 1000 nM.

As to `CC(=O)Nc1cc2c(cn1)C1(CC1)CN2c1cc(C)cc(OCC(F)(F)F)n1` [Example 333, N-(1′-(4-methyl-6-(2,2,2-trifluoroethoxy)pyridin-2-yl)-1′,2′-dihydrospiro[cyclopropane-1,3′-pyrrolo[3,2-c]pyridin]-6′-yl)acetamide trifluoroacetate], the IC50 was 100 to 1000 nM on JH2 domain of human Tyk2 (JH2 biochemical assay) and not below 1000 nM in test [1] (stimulated 15 minutes).

With `CC(=O)Nc1cc2c(cn1)C1(CC1)CN2c1nc(C)c(C)s1` [Example 80, N-(1′-(4,5-dimethylthiazol-2-yl)-1′,2′-dihydrospiro[cyclopropane-1,3′-pyrrolo[3,2-c]pyridin]-6′-yl)acetamide], the IC50 on JH2 domain of human Tyk2 (JH2 biochemical assay) is 10 to 100 nM; in test [1] (stimulated 15 minutes), not below 1000 nM.
